Results published in patent US20070059385A1, “Safe pharmaceutical composition for treating and preventing cancer and method of use” (priority 2005, published 2007).
Where two headings read alike, the source gives them in different places.

What was measured:
[1] = tested on: Human leukemia cells (HL-60); experiment: Apoptosis of human leukemia cells; format: cell-based
Protocol: Human leukemia cells (HL-60) were grown in RPMI Medium 1640 supplemented with 10% (v/v) heat-inactivated FBS (56° C. for 30 min) at 37° C. in a humidified 95% air/5% CO2 atmosphere. Cells were seeded at a level of 2×10^5 cells/ml. Cells were allowed to attain a maximum density of 1.2×10^6 cells/ml before being passed by dilution into fresh medium to a concentration of 2×10^5 cells/ml. […]
(§1) For evaluation of apoptosis by flow cytometry, cells were fixed and permeabilized in 1% paraformaldehyde and ice-cold 70% ethanol. Digoxigenin-dUTP was incorporated at the 3′OH ends of the fragmented DNA in the presence of terminal deoxynucleotidyltranserase, and the cells were incubated with FITC-labeled anti-digoxigenin-dUTP and with propidium iodide. Green (apoptotic cells) and orange (total DNA) fluorescence were measured with a FACScan flow cytometer and analyzed with LYSIS II and CELLFIT programs. Data were analyzed by Student's t-test. P values were considered significant when <0.05. […]
Apoptosis of HL-60 cells was assessed by changes in cell morphology and by measurement of DNA nicks using the Apop Tag Kkt (Oncor, Gaithersburg, Md.). […] These features make apoptotic cells relatively easy to distinguish from necrotic cells. These changes are detected on cytospin preparations stained with Diff-Quick Stain Set. Apoptotic cells were enumerated in a total of about 300 cells by light microscopy.

carcinogen-DNA binding = experiment: Inhibition of carcinogen-DNA binding; format: cell-based
Protocol: Cells were maintained in 75-cm^2 tissue culture flask with media supplemented with retinoic acid (0.1 μg/ml) and epinephrine (0.5 μg/ml). The cells were passage when they reached approximately 80% confluence and were maintained at 37° C. in 5% CO2. Cells were plated at a density of 5×10^5 cells/well in 6-well tissue culture plates and allowed to incubated for 18 h at 37° C. in 5% CO2. Following incubation, the DNA was harvested and resuspended in Tris-EDTA buffer. RNA was removed by treating with RNase T1 and RNase A at 37° C. for 1 h. An aliquot was used for determining the DNA content by the absorbency at 260 nm, and the rest of the sample was used to determine the radioactivity; the percentage inhibition of carcinogen-DNA binding was determined by measuring the cpm/mg of DNA in the carcinogen.

TA98 = experiment: Salmonella mutagenicity assay TA98
Protocol: The method for detecting mutagenicity of HHT, with the Salmonella system that detects the reversion of the bacteria from His^− to His^+, is widely used.
The bacterial tester strains used for mutagenesis testing are TA97, TA98, TA100 and TA102. Mutagenesis testing method was done as described previously ^[77-88]. In brief, TA97, TA98, TA100 and TA102 were grown in agar gel culture. The petri plats (100×15 mm style) contain 30 ml with 2% glucose. The agar mixture was agitated vigorously and immediately poured into plates of minimal agar. The cultures were incubated at 37° C. in a dark and 5% CO2 in air for 48 hours. After 48 hours the colonies in both test and controls are counted. The presence of a background lawn of bacteria on the histidine-poor soft agar plate was used as an indication that gross toxic effects were absent. Mutagenicity assays were carried out at least in triplicate.
The range of spontaneous mutation rates for the individual strains, which were considered to be acceptable, was TA97 (100-170), TA98 (20-40) and TA100 (80-150).

[2] = dog, in vivo
Text: Twenty normal adult dogs which weight approximately 10 kg±1 kg used in experiments.
Most deaths were caused by cardiac dysfunction.

Normal cells = experiment: Apoptosis of normal cells; format: cell-based
Protocol: Cells ([…] were incubated in 10 ml IMDM plus […] heat-inactivated fetal calf serum. Samples were incubated for 24 hours with various concentrations of drugs. Control samples received the same amount of media, without drug addition. After 24 hours of incubation the samples were pelleted and fixed in ethanol […] for 15 minutes at 4° C.; after three washes in PBS, the cells were treated with RNase I 0.5 mg/ml for 15 minutes at 37° C. The cells were harvested by centrifugation and resuspended in 50 μg/ml propidium iodide in PBS. Analysis (upon acquisition of 10,000-20,000 events) was performed on a FACscan flow cytometer with the FL2 detector in logarithmic mode, using Lysis II software (Becton Dickinson). Apoptotic cells were located in the hypodiploid region of the histogram, due to chromosome condensation and fragmentation.
as §1

[3] = Table 4, HHT (50 ng/ml) alone or in combination

In the case of `COC(=O)C[C@](O)(CCCC(C)(C)O)C(=O)O[C@@H]1C(OC)=C[C@]23CCCN2CCc2cc4c(cc2[C@H]13)OCO4` [HHT, Homoharringtonine], the “Apoptosis (%)” value ([1]; HHT 10 ng/ml) is reported as 33.8 ± 4.8 %, the “Apoptosis (%)” value ([1]; HHT 50 ng/ml) is reported as 42.8 ± 5.2 % and the “Apoptosis (%)” value ([1]; HHT 100 ng/ml) is reported as 60.2 ± 8.9 %. The “Apoptosis (%)” value ([1]; HHT 500 ng/ml) was 92.0 ± 10.8 %, the “Apoptosis (%)” value [1, 3] was 42.8 ± 5.2% and the “Inhibition (%) of carcinogen-DNA binding” value (carcinogen-DNA binding) was 56.8 ± 6.2%. The “Number of His^+ revertants/plate” value (TA98; TA98 +S, 0.1 μg/plate) was 34 ± 4 revertants/plate, the “Number of His^+ revertants/plate” value (TA98; TA98 +S, 1 μg/plate) was 32 ± 4 revertants/plate and the “Number of His^+ revertants/plate” value (TA98; TA98 +S, 10 μg/plate) was 36 ± 3 revertants/plate. The “Number of His^+ revertants/plate” value (TA98; TA98 +S, 100 μg/plate) was 34 ± 4 revertants/plate, the “Number of His^+ revertants/plate” value (TA98; TA98 −S, 0.1 μg/plate) was 29 ± 3 revertants/plate and the “Number of His^+ revertants/plate” value (TA98; TA98 −S, 1 μg/plate) was 30 ± 3 revertants/plate. For the same molecule, the “Number of His^+ revertants/plate” value (TA98; TA98 −S, 10 μg/plate) was 38 ± 4 revertants/plate, the “Number of His^+ revertants/plate” value (TA98; TA98 −S, 100 μg/plate) was 32 ± 4 revertants/plate and the “major target organs involved in toxicity” value [2] was “limited to G.I. tract, heart and hematopoietic organs”. For the same molecule, the reversibility of toxicities [2] was “completely reversible upon discontinuation of treatment”, the “Abnormality of ECG, ST-T” value ([2]; 0.1 mg/kg/day) was “−” and the Anorexia ([2]; 0.1 mg/kg/day) was “+”. The Cardiac necrosis ([2]; 0.1 mg/kg/day) was “−”, the Diarrhea ([2]; 0.1 mg/kg/day) was “±” and the Hepatic ecchymosis ([2]; 0.1 mg/kg/day) was “−”. The “Hepatic fibrosis and cirrhosis” value ([2]; 0.1 mg/kg/day) was “−”, the Hepatic necrosis ([2]; 0.1 mg/kg/day) was “−” and the Marrow depression ([2]; 0.1 mg/kg/day) was “+”. The Renal necrosis ([2]; 0.1 mg/kg/day) was “−”, the Renal toxic nephropathy ([2]; 0.1 mg/kg/day) was “−” and the Seminal depression ([2]; 0.1 mg/kg/day) was “−”. For the same molecule, the Spleen necrosis ([2]; 0.1 mg/kg/day) was “−”, the Vomiting ([2]; 0.1 mg/kg/day) was “+” and the “Abnormality of ECG, ST-T” value ([2]; 0.2 mg/kg/day) was “±”. The Anorexia ([2]; 0.2 mg/kg/day) was “++”, the Cardiac necrosis ([2]; 0.2 mg/kg/day) was “−” and the Diarrhea ([2]; 0.2 mg/kg/day) was “+”. The Hepatic ecchymosis ([2]; 0.2 mg/kg/day) was “−”, the “Hepatic fibrosis and cirrhosis” value ([2]; 0.2 mg/kg/day) was “−” and the Hepatic necrosis ([2]; 0.2 mg/kg/day) was “±”. The Marrow depression ([2]; 0.2 mg/kg/day) was “+”, the Renal necrosis ([2]; 0.2 mg/kg/day) was “−” and the Renal toxic nephropathy ([2]; 0.2 mg/kg/day) was “−”. For the same molecule, the Seminal depression ([2]; 0.2 mg/kg/day) was “−”, the Spleen necrosis ([2]; 0.2 mg/kg/day) was “−” and the Vomiting ([2]; 0.2 mg/kg/day) was “+”. For the same molecule, the “Abnormality of ECG, ST-T” value ([2]; 0.3 mg/kg/day) was “+”, the Anorexia ([2]; 0.3 mg/kg/day) was “+++” and the Cardiac necrosis ([2]; 0.3 mg/kg/day) was “±”. The Diarrhea ([2]; 0.3 mg/kg/day) was “+”, the Erythrocyte count ([2]; 0.3 mg/kg/day) was 3.40 ×10^6/mm^3 and the Hepatic ecchymosis ([2]; 0.3 mg/kg/day) was “±”. For the same molecule, the “Hepatic fibrosis and cirrhosis” value ([2]; 0.3 mg/kg/day) was “±”, the Hepatic necrosis ([2]; 0.3 mg/kg/day) was “+” and the Marrow depression ([2]; 0.3 mg/kg/day) was “++”. The Renal necrosis ([2]; 0.3 mg/kg/day) was “±”, the Renal toxic nephropathy ([2]; 0.3 mg/kg/day) was “±” and the Seminal depression ([2]; 0.3 mg/kg/day) was “−”. For the same molecule, the Spleen necrosis ([2]; 0.3 mg/kg/day) was “±”, the Vomiting ([2]; 0.3 mg/kg/day) was “++” and the “Apoptosis (%)” value (Normal cells; HHT 10 ng/ml) was 16.5 ± 2.0 %. The “Apoptosis (%)” value (Normal cells; HHT 50 ng/ml) was 18.5 ± 2.5 %, the “Apoptosis (%)” value (Normal cells; HHT 100 ng/ml) was 22.0 ± 3.5 % and the “Apoptosis (%)” value (Normal cells; HHT 500 ng/ml) was 29.5 ± 5.2 %. For the same molecule, the “Apoptosis (%)” value (Normal cells; [3]) was 18.5 ± 2.5%.
